Measured values from US20200397795A1, “PROPHYLACTIC TREATMENT OF VENOUS THROMBOEMBOLISM” (JANSSEN PHARMACEUTICALS, INC., priority 2019, published 2020).
Where “and” joins values, the source holds several entries; their conditions need not be identical. Equal values may be shown once.

What was measured:
[1] = tested on: bleeding events in patients hospitalized for acute medical illness; experiment: MAGELLAN (Study 1): safety, bleeding events and adverse events; assay type: in vivo, human; conditions: for Fatal bleeding events, number: Day 1 to 10; for Treatment-emergent fatal bleeding events, number: Day 1 to 35; for Pulmonary embolism confirmed (deaths), number: entire study duration; for Investigator-reported deaths, incidence / VTE-related deaths, incidence: entire study duration (Day 1 to 90); for Bleeding events that required blood transfusions of 2 units / Bleeding events that resulted in a fall of Hb to ≥2 g/dL / Investigator-reported TEAEs leading to permanent discontinuation of study drug: in vivo
Source text: The safety component of Criteria for Evaluation was the primary safety endpoint of incidence of the composite of treatment-emergent major bleeding events and non-major clinically relevant bleeding events observed during treatment and not later than 2 days after the last intake of double-blind study drug.
The primary safety outcome of the study was the treatment-emergent clinically relevant bleeding events, which were a composite of treatment-emergent adjudicated major bleeding events and clinically relevant non-major bleeding events.
The safety analysis was performed on 7998 randomized subjects who received at least one dose of study drug, rivaroxaban (3997 subjects) or enoxaparin (4001 subjects).
The primary safety outcome of the study was the assessment of clinically relevant bleeding events, which are a composite of treatment-emergent adjudicated major bleeding events and clinically relevant non-major bleeding events.

[2] = tested on: coagulation parameters (PT, PiCT, D-dimer); experiment: MAGELLAN (Study 1): pharmacodynamics (PT, PiCT, D-dimer); assay type: in vivo, human; conditions: for Prothrombin time, overall median: full profile sampling
Description: (§1) Full profile pharmacodynamics (PD) sampling was performed in parallel to the PK samples on Day 1 and Day 10. In addition, sparse PD sampling was performed in nearly all subjects at 5 predefined time points: prior to study drug administration, around the time of peak plasma concentrations (2 to 4 hours after intake of the rivaroxaban tablet or rivaroxaban placebo tablet) on the first, 10th and 35th day of study drug administration, and before study drug administration on Day 10.
Coagulation parameters assessed included international normalized ratio (INR), prothrombin time (PT), prothrombinase-induced clotting time (PiCT), and the fibrin degradation product, D-dimer. Pharmacodynamic parameters assessed included changes to baseline of the maximal effect (Emax) and changes to baseline at trough (Etrough).
as §1, with “Two sets of samples were evaluated for PD parameters: Full” for “Full”, “PD” for “pharmacodynamics (PD)”, “sampling” for “sampling was performed”, “approximately” for “around”

[3] = tested on: venous thromboembolism (VTE) in MAGELLAN subpopulation; experiment: Retrospective analysis of MAGELLAN subpopulation (five bleeding risk factors excluded): efficacy; assay type: in vivo, human; conditions: for Primary efficacy endpoint outcome, incidence: Day 10, per-protocol analysis set; for Asymptomatic lower extremity proximal DVT, incidence / VTE-related death, incidence: Day 35
Source text: (§2) Using key exclusion criteria from Study 2: MARINER to exclude subjects with a higher risk of bleeding, a subpopulation of Study 1: MAGELLAN was retrospectively analyzed to re-evaluate benefit-risk in this subpopulation, which included efficacy endpoints of symptomatic VTE and VTE-related death and safety endpoints of major bleeding events. The key exclusion criteria from Study 2: MARINER that were retrospectively applied to the Study 1: MAGELLAN population for this analysis included: active gastroduodenal ulcer within 3 months of randomization/currently symptomatic; any bleeding within 3 months prior to randomization or during index hospitalization; active cancer at randomization; medical history of severe bronchiectasis/pulmonary cavitation; or dual antiplatelet therapy at baseline. Subjects that met one or more of these criteria prior to or at randomization using standardized MedDRA queries or preferred terms of MedDRA version 13.1 based on data entered into the case report forms in the original MAGELLAN database were excluded from the subpopulation analysis.
(§3) The MAGELLAN study (Study 1) randomized 8,101 patients from 562 sites in 52 countries and the safety population of patients that received at least one dose of study medication was 7,998 patients. The five key risk factors for major bleeding events in MAGELLAN were identified using study data forms as described herein. With the retrospective use of these risk factors, 1,551 patients were excluded from MAGELLAN and the remaining 6,447 patients, approximately 80% of MAGELLAN, represented the subpopulation. Patients in both treatment groups had no differences in baseline characteristics, and had similar medical histories, with at least 99% of patients having complete immobility or decreased mobility and median total number of days in hospital of 10.

[4] = tested on: bleeding events in MAGELLAN subpopulation; experiment: Retrospective analysis of MAGELLAN subpopulation: safety (bleeding); assay type: in vivo
Source text: as §2, §3

[5] = rivaroxaban-enoxaparin phase (Day 1 to 10)
[6] = rivaroxaban-enoxaparin/placebo phase (Day 1 to 35)
[7] = rivaroxaban-placebo phase (Day 10 to 35)
[8] = acute respiratory insufficiency, Baseline
[9] = acute respiratory insufficiency, Day 1 peak
[10] = acute respiratory insufficiency, Day 10 peak
[11] = acute respiratory insufficiency, Day 10 trough
[12] = entire study population, Baseline
[13] = entire study population, Day 1 peak
[14] = entire study population, Day 10 peak
[15] = entire study population, Day 35 peak
[16] = post-discharge phase, entire population and subpopulation

O=C(NC[C@H]1CN(c2ccc(N3CCOCC3=O)cc2)C(=O)O1)c1ccc(Cl)s1 [Rivaroxaban, 5-chloro-N-({(5S)-2-oxo-3-[4-(3-oxo-4-morpholinyl)phenyl]-1,3,oxazolidin-5-yl}methyl)-2-thiophenecarboxamide]
Fatal bleeding events, number ([1]; entire population): 5 cases | Treatment-emergent fatal bleeding events, number [1]: 7 subjects | Major bleeding events, incidence ([1]; Day 1 to Day 10): 0.6% | Intracranial bleeding site (critical site bleeding), incidence ([1]; Day 1 to Day 35): 0.1% | Investigator-reported SAEs, incidence ([1]; Day 1 to Day 35): 2.0% | Investigator-reported TEAEs, incidence ([1]; Day 1 to Day 35): 12.5% | Investigator-reported drug-related TEAEs, incidence ([1]; Day 1 to Day 35): 6.9% | Major bleeding events, incidence ([1]; Day 1 to Day 35): 1.1% | Major bleeding events, incidence ([1]; Day 10 to Day 35): 0.5% | Clinically relevant non-major bleeding events, incidence ([1]; all phases of the study): 4.0% | Major bleeding events, incidence ([1]; all phases of the study): 1.6% | Minimal bleeding events, incidence ([1]; all phases of the study): 9.6% | Major bleeding, RR vs enoxaparin-placebo ([1]; entire MAGELLAN population, through Day 35): 2.87 | Fatal bleeds, incidence ([1]; entire population, Day 10): 0.1% | Major bleeding, relative risk ([1]; entire population, Day 10): 2.18 | Fatal bleeds, incidence ([1]; entire population, Day 35): 0.2% | Pulmonary embolism confirmed (deaths), number [1]: 2 subjects | Investigator-reported deaths, incidence [1]: 7.0% | VTE-related deaths, incidence [1]: 1.0% | Major bleeding events, incidence ([1]; follow-up phase): 0.6% | Bleeding events that required blood transfusions of 2 units [1]: 0.6% | Bleeding events that resulted in a fall of Hb to ≥2 g/dL [1]: 0.8% | Investigator-reported TEAEs leading to permanent discontinuation of study drug [1]: 3.1% | Clinically relevant bleeding events, incidence [1, 5]: 2.8% | Relative risk, clinically relevant bleeding [1, 5]: 2.272 | Clinically relevant bleeding events, incidence [1, 6]: 4.1% | Relative risk, clinically relevant bleeding [1, 6]: 2.46 and 2.455 | Clinically relevant bleeding events, incidence [1, 7]: 1.4% | Relative risk, clinically relevant bleeding [1, 7]: 2.958 | Mean peak concentration expressed in IU/mL (PiCT two step) ([2]; Day 1): below the lower limit of quantitation | Mean peak concentration of rivaroxaban (PiCT one step) ([2]; Day 1): 198.8 µg/L | Mean peak concentration expressed in IU/mL (PiCT two step) ([2]; Day 10): below the lower limit of quantitation | Mean peak concentration of rivaroxaban (PiCT one step) ([2]; Day 10): 202.78 µg/L | Mean peak concentration of rivaroxaban (PiCT one step) ([2]; Day 35): 168 µg/L | D-dimer, median ([2]; acute infectious disease, Baseline): 1.76 µg/mL | D-dimer, median ([2]; acute infectious disease, Day 1 peak): 2.07 µg/mL | D-dimer, median ([2]; acute infectious disease, Day 10 peak): 2.13 µg/mL | D-dimer, median ([2]; acute infectious disease, Day 10 trough): 1.74 µg/mL | D-dimer, median [2, 8]: 1.48 µg/mL | D-dimer, median [2, 9]: 1.44 µg/mL | D-dimer, median [2, 10]: 1.37 µg/mL | D-dimer, median [2, 11]: 1.18 µg/mL | D-dimer, median [2, 12]: 0.94 µg/mL | D-dimer, median [2, 13]: 0.90 µg/mL | D-dimer, median [2, 14]: 0.64 µg/mL | D-dimer, median [2, 15]: 0.45 µg/mL | Prothrombin time, overall median ([2]; peak Day 1): 23.5 s | Prothrombin time, overall median ([2]; peak Day 10): 23.2 s | Change in clotting time, PiCT two step ([2]; sparse sampling): No change | Prothrombin time, median ([2]; sparse sampling, Baseline): 14.3 s | Prolongation of PiCT one step assay ([2]; sparse sampling, Day 1): 14.6 s | Prothrombin time, median ([2]; sparse sampling, Day 1 peak): 19.3 s | Prolongation of PiCT one step assay ([2]; sparse sampling, Day 10): 13.1 s | Prothrombin time, median ([2]; sparse sampling, Day 10 peak): 19.3 s | Prothrombin time, median ([2]; sparse sampling, Day 35 peak): 18.6 s | Primary efficacy endpoint, RR vs enoxaparin ([3]; Day 10, per-protocol): 0.820 | Primary efficacy endpoint outcome, incidence [3]: 2.4% | Asymptomatic lower extremity proximal DVT, incidence [3]: 3.0% | VTE-related death, incidence [3]: 0.6% | Primary efficacy outcome, RR vs enoxaparin ([3]; Day 35, mITT): 0.68 | Primary efficacy outcome, incidence ([3]; Day 35, mITT): 3.9% | Major bleeding, relative risk ([4]; human, in vivo, 10 day): 1.19 | Clinically relevant bleeding (major and NMCR), incidence ([4]; human, in vivo, 35 day): 3.5% | Clinically relevant bleeding, RR vs enoxaparin ([4]; human, in vivo, 35 day): 2.35 | Major bleeding, RR vs enoxaparin-placebo ([4]; human, in vivo, 35 day): 1.48 | Major bleeding, incidence ([4]; human, in vivo, 35 day): 0.68% | Fatal bleeds, number [4, 16]: 2 | Fatal bleeds, incidence ([4]; subpopulation, Day 10): less than 0.1% | Fatal bleeds, number ([4]; subpopulation, Day 10): 1 | Fatal bleeds, incidence ([4]; subpopulation, Day 35): less than 0.1%

Enoxaparin
Fatal bleeding events, number ([1]; entire population): 1 cases | Treatment-emergent fatal bleeding events, number [1]: 1 subjects | Major bleeding events, incidence ([1]; Day 1 to Day 10): 0.3% | Investigator-reported SAEs, incidence ([1]; Day 1 to Day 35): 0.8% | Investigator-reported TEAEs, incidence ([1]; Day 1 to Day 35): 8.5% | Investigator-reported drug-related TEAEs, incidence ([1]; Day 1 to Day 35): 4.2% | Major bleeding events, incidence ([1]; Day 1 to Day 35): 0.4% | Pulmonary bleeding site (critical site bleeding), incidence ([1]; Day 1 to Day 35): 0% | Retroperitoneal bleeding site (critical site bleeding), incidence ([1]; Day 1 to Day 35): 0% | Clinically relevant non-major bleeding events, incidence ([1]; all phases of the study): 2.1% | Major bleeding events, incidence ([1]; all phases of the study): 0.9% | Minimal bleeding events, incidence ([1]; all phases of the study): 8.2% | Pulmonary embolism confirmed (deaths), number [1]: 1 subjects | Investigator-reported deaths, incidence [1]: 6.5% | VTE-related deaths, incidence [1]: 1.2% | Major bleeding events, incidence ([1]; follow-up phase): 0.6% | Bleeding events that required blood transfusions of 2 units [1]: 0.2% | Bleeding events that resulted in a fall of Hb to ≥2 g/dL [1]: 0.2% | Investigator-reported TEAEs leading to permanent discontinuation of study drug [1]: 1.5% | Clinically relevant bleeding events, incidence [1, 5]: 1.2% | Clinically relevant bleeding events, incidence [1, 6]: 1.7% | Clinically relevant bleeding events, incidence [1, 7]: 0.5% | Baseline value expressed in IU/mL (PiCT two step) ([2]; Day 1): below the lower limit of quantitation | Mean peak concentration expressed in IU/mL (PiCT two step) ([2]; Day 1): 0.32 IU/mL | Mean peak concentration expressed in IU/mL (PiCT two step) ([2]; Day 10): 0.31 IU/mL | Trough concentration expressed in IU/mL (PiCT two step) ([2]; Day 10): 0.11 IU/mL | D-dimer, median [2, 8]: 0.57 µg/mL | D-dimer, median [2, 9]: 0.66 µg/mL | D-dimer, median [2, 10]: 0.70 µg/mL | D-dimer, median [2, 11]: 0.46 µg/mL | D-dimer, median [2, 12]: 0.95 µg/mL | D-dimer, median [2, 13]: 0.94 µg/mL | D-dimer, median [2, 14]: 0.66 µg/mL | D-dimer, median [2, 15]: 0.67 µg/mL | Influence on prothrombin time ([2]; in vivo): no influence | Change in clotting time, PiCT one step ([2]; sparse sampling): No change | Prothrombin time, median ([2]; sparse sampling, Baseline): 14.4 s | Prolongation of PiCT two step assay ([2]; sparse sampling, Day 1): 23.6 s | Prothrombin time, median ([2]; sparse sampling, Day 1 peak): 14.8 s | Prolongation of PiCT two step assay ([2]; sparse sampling, Day 10): 19.8 s | Prothrombin time, median ([2]; sparse sampling, Day 10 peak): 14.2 s | Prothrombin time, median ([2]; sparse sampling, Day 35 peak): 13.8 s | Primary efficacy endpoint outcome, incidence [3]: 3.0% | Asymptomatic lower extremity proximal DVT, incidence [3]: 4.4% | VTE-related death, incidence [3]: 1.0% | Primary efficacy outcome, incidence ([3]; Day 35, mITT): 5.7% | Fatal bleeds, number [4, 16]: 0 | Fatal bleeds, number ([4]; subpopulation, Day 10): 1 | Clinically relevant bleeding (major and NMCR), incidence ([4]; subpopulation, Day 35): 1.5% | Major bleeding, incidence ([4]; subpopulation, through Day 35): 0.47%
